Five compounds from paper PMC9228270, “Design, Synthesis, In Silico Studies and Inhibitory Activity towards Bcr-Abl, BTK and FLT3-ITD of New 2,6,9-Trisubstituted Purine Derivatives as Potential Agents for the Treatment of Leukaemia” (Pharmaceutics, 2022) can be followed below.

Like-named read-outs stand apart in the source and are kept apart here.

For one data set, the target named is Bcr-Abl1 (Homo sapiens, UniProt P00519). The data set is described as follows: Recombinant kinase radioassay, Abl. It counts as biochemical. The conditions noted are these: ATP 1 µM, at least three independent experiments, range 0.01–100 µM. The protocol:
(§1) Recombinant kinase inhibition was measured using standard radioassay. Bcr-Abl1 and Cdk-2/cyclin E kinases were produced in-house, FLT3-ITD and BTK were purchased from ProQinase. The kinases were assayed with suitable substrates (500 µM peptide […] for Abl, 1 mg/mL histone H1 for Cdk-2, 100 µM poly (Glu:Tyr; 4:1)) in the presence of ATP (1 µM for Bcr-Abl, 15 µM for Cdk-2 and BTK), 0.05 µCi [γ-^33P]ATP and the test compound in reaction buffer (60 mM HEPES-NaOH, pH 7.5, 3 mM MgCl2, 3 mM MnCl2, 3 µM Na orthovanadate, 1.2 mM DTT, 2.5 µg/50 µL PEG20.000). The reactions were stopped by adding 3% aq. H3PO4. P-81 phosphocellulose (Whatman) was used to separate phosphorylated substrates. Kinase activity was quantified using a FLA-7000 digital image analyser.

A further data set addresses T1, BTK (Homo sapiens, UniProt Q06187).
T1 construct: purchased ProQinase
Description: Recombinant kinase radioassay, BTK. The format is biochemical. The procedure: as §1

The next data set deals with T2, FLT3-ITD (Homo sapiens, UniProt P36888, ITD).
T2 sequence (P36888 27-993): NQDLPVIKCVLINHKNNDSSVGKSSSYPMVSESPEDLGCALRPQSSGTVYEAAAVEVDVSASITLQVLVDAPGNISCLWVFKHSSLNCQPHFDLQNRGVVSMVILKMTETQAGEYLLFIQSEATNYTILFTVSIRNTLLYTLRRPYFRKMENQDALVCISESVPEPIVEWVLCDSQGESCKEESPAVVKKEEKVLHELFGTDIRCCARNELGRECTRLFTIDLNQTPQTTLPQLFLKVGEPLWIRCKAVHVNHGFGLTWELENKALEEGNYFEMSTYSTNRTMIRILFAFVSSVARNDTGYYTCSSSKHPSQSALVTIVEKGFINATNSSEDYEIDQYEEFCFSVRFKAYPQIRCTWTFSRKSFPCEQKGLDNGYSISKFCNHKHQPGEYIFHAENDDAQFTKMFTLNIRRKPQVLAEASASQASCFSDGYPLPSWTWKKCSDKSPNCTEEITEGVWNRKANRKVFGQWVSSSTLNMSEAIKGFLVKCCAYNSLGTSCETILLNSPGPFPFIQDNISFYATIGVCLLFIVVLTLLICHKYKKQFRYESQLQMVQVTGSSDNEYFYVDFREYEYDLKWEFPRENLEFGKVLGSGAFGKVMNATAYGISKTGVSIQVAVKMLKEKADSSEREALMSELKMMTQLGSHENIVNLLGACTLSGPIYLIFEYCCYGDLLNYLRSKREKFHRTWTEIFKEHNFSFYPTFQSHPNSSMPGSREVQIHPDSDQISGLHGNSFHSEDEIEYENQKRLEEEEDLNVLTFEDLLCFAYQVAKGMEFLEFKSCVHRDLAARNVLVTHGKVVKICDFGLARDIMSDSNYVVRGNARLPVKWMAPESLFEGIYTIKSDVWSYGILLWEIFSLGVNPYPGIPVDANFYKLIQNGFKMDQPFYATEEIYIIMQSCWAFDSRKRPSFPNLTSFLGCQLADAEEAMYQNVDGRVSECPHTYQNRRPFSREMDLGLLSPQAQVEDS
The data set is described as follows: Recombinant kinase radioassay, FLT3-ITD. The format is biochemical. The procedure: as §1

The target of another data set is T3, Cdk-2/cyclin E (Homo sapiens, UniProt P24941).
T3 construct: made in house
Description: Recombinant kinase radioassay, Cdk-2/cyclin E. The format is biochemical. The note with it: ATP 15 µM, at least three independent experiments, range 0.01–100 µM. The procedure:
as §1

A further data set has as its system K562. Description: Cytotoxicity assay (resazurin), K562. The format is cell-based. The conditions noted are these: Homo sapiens, 72 h, three independent experiments, range 0.1 to 25 µM. The protocol: (§2) Cytotoxicity assays for the purines were quantified using the resazurin method, a dye to measure redox reactions occurring in the mitochondria of live cells. The cells were treated by tested compounds (in triplicate, six different doses) for 72 h.
On the technique in general: Resazurin is reduced to fluorescent resorufin, in cell work by metabolically active cells.

Another data set has as its system HL-60. The data set is described as follows: Cytotoxicity assay (resazurin), HL-60. It counts as cell-based. The conditions noted are these: Homo sapiens, 72 h, three independent experiments, range 0.1 to 25 µM. The protocol: as §2
Another data set has as its system MV4-11. The data set is described as follows: Cytotoxicity assay (resazurin), MV4-11. The format is cell-based. The note with it: Homo sapiens, 72 h, three independent experiments, range 0.1 to 25 µM. The protocol:
as §2

In a further data set the test system is Ramos. The data set is described as follows: Cytotoxicity assay (resazurin), Ramos. It counts as cell-based. The conditions noted are these: Homo sapiens, 72 h, three independent experiments, range 0.1 to 25 µM. The protocol: as §2
For a further data set, the system named is CEM. The data set is described as follows: Cytotoxicity assay (resazurin), CEM. It counts as cell-based. The conditions noted are these: Homo sapiens, CCRF-CEM, 72 h, three independent experiments, range 0.1 to 25 µM. The protocol: as §2
The mark [1] stands for this setting: recombinant kinase, radioassay, ATP 15 µM, at least three independent experiments, range 0.01–100 µM, read-out: IC50 BTK.
[2] abbreviates: recombinant kinase, radioassay, at least three independent experiments, range 0.01–100 µM, read-out: IC50 FLT3-ITD.

T1 sequence (Q06187 whole entry): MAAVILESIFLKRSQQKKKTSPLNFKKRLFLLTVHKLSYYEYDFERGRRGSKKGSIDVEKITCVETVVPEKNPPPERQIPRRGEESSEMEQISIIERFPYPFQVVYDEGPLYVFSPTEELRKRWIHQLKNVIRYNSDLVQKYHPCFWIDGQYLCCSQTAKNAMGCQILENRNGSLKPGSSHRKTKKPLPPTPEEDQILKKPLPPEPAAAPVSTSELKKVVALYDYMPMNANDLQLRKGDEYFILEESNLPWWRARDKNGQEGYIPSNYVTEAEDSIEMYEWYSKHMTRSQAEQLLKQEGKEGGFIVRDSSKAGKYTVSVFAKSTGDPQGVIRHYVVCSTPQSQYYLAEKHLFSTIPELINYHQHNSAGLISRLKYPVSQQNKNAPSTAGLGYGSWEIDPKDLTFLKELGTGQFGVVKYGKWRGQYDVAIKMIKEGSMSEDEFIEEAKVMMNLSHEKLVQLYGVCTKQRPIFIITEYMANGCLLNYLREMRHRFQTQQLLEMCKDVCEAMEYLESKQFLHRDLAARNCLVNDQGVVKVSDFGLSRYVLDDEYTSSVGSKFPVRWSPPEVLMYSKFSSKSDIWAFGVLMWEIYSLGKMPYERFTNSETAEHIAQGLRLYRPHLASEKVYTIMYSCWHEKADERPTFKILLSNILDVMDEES
Bcr-Abl1, sequence (P00519 27-1130): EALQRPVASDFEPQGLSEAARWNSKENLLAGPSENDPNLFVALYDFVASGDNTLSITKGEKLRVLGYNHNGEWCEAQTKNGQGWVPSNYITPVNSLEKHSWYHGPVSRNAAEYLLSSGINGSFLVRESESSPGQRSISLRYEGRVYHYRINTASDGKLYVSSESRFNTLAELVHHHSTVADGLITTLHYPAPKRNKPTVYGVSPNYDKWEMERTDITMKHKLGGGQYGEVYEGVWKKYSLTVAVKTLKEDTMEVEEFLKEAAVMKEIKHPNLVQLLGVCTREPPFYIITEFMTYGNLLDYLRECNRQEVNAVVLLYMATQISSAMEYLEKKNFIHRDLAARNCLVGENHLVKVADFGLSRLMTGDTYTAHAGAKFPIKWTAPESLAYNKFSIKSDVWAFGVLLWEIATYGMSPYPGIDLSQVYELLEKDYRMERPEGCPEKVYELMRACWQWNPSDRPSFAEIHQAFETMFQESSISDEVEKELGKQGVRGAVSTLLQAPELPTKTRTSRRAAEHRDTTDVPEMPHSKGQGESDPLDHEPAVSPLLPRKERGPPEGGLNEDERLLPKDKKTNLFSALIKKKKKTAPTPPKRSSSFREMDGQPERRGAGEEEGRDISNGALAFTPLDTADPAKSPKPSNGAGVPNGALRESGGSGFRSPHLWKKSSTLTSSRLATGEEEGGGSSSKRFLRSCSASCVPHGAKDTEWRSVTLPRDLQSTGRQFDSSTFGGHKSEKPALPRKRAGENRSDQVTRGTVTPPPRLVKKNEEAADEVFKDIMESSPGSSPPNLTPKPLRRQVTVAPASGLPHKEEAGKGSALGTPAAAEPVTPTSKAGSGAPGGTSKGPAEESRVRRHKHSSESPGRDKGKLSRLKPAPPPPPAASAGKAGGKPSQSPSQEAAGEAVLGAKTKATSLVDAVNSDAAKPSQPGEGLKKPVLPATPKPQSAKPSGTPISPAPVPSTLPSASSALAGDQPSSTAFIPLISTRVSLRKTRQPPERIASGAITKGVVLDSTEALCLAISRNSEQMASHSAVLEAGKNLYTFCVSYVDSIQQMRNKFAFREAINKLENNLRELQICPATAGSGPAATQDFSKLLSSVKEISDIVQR

With `CN1CCN(c2ccc(Nc3nc(Nc4ccc(F)c(Cl)c4)c4ncn(CC5CC5)c4n3)cc2)CC1` [Compound 4m, N^6-(3-Chloro-4-fluorophenyl)-9-(cyclopropylmethyl)-N^2-(4-(4-methylpiperazin-1-yl)phenyl)-9H-purine-2,6-diamine], the melting point fell in the range of 153 to 155 °C. For the same compound, the IC50 on Bcr-Abl1 was 0.27 ± 0.05 µM. In addition, the IC50 on BTK (setting [1]) stood at 2.39 ± 0.43 µM. The IC50 on FLT3-ITD (setting [2]) was determined as 1.54 µM. Further, on Cdk-2/cyclin E, the IC50 is 10.8 ± 3.84 µM. The compound further yielded a GI50 with K562 of 2.57 ± 0.52 µM. The compound also returned a GI50 with HL-60 of 0.86 ± 0.11 µM. Further, in the data set with MV4-11, it took 1.88 ± 0.06 µM to inhibit growth by half (GI50). Also, in the data set with Ramos, the GI50 was found to be 7.52 ± 0.41 µM. In the data set on CEM, this compound returned a GI50 of 13.3 ± 1.58 µM.

Turning to `CN1CCN(c2ccc(Nc3nc(Nc4cccc(C(F)(F)F)c4)c4ncn(CC5CC5)c4n3)cc2)CC1` [Compound 4d, 9-(Cyclopropylmethyl)-N^2-(4-(4-methylpiperazin-1-yl)phenyl)-N^6-(3-(trifluoromethyl)phenyl)-9H-purine-2,6-diamine], the melting point lay in the range of 134 to 135 °C. In addition, the IC50 at Bcr-Abl1 amounted to 1.78 ± 0.07 µM. Further, at BTK (setting [1]), the IC50 came out at 22.7 ± 2.88 µM. For the same compound, at FLT3-ITD (setting [2]), the IC50 turned out to be 1.8 µM. The IC50 at Cdk-2/cyclin E was found to be 15.5 ± 1.7 µM. The same compound gave a GI50 in the data set with K562 of 4.51 ± 0.36 µM. Besides, in the data set with HL-60, the GI50 is 0.72 ± 0.16 µM. The compound further displayed a GI50 in the data set with MV4-11 of 2.84 ± 0.29 µM. For the same compound, the 50% growth inhibitory concentration (GI50) in the data set with Ramos is 3.83 ± 0.1 µM. Halving of growth in the data set with CEM (GI50) required 23.78 ± 0.08 µM.

Consider `CN1CCN(c2ccc(Nc3nc(Nc4ccc(Cl)c(Cl)c4)c4ncn(CC5CC5)c4n3)cc2)CC1` [Compound 4n, 9-(Cyclopropylmethyl)-N^6-(3,4-dichlorophenyl)-N^2-(4-(4-methylpiperazin-1-yl)phenyl)-9H-purine-2,6-diamine], for which the melting point lay within 132 to 133 °C. For the same compound, the IC50 at Bcr-Abl1 was found to be 0.07 ± 0.01 µM. Also, the IC50 on BTK (setting [1]) came to 3.9 ± 0.05 µM. For the same compound, at FLT3-ITD (setting [2]), the IC50 is 2.53 µM. In addition, at Cdk-2/cyclin E, the IC50 is 12.9 ± 1.7 µM. Moreover, in the data set on K562, the GI50 was found to be 5.54 ± 1.56 µM. Besides, halving of growth in the data set on HL-60 (GI50) required 1.52 ± 0.34 µM. The compound further yielded a GI50 in the data set with MV4-11 of 4.81 ± 1.54 µM. The compound also came in with a GI50 in the data set on Ramos of 8.02 ± 1.3 µM. The compound further displayed a GI50 in the data set on CEM of 17.54 ± 0.08 µM.

Compound `CN1CCN(c2ccc(Nc3nc(Nc4ccccc4)c4ccn(CC5CC5)c4n3)cc2)CC1` [Compound 12, 7-(Cyclopropylmethyl)-N^2-(4-(4-Methylpiperazin-1-yl)Phenyl)-N^4-Phenyl-7H-pyrrolo[2,3-d]Pyrimidine-2,4-Diamine] gave a melting point of 102.3 to 105.5 °C. Besides, the IC50 on Bcr-Abl1 stood at 62.3 ± 12.1 µM. Moreover, the IC50 at BTK (-log IC50 in molar concentration, Table S3, read-out: Experimental pIC50, CoMFA BTK (converted)) was 2.39 µM. Also, the IC50 on BTK (setting [1]) was above 20 µM. Further, the IC50 at FLT3-ITD (-log IC50 in molar concentration, Table S3, read-out: Experimental pIC50, CoMFA FLT3 (converted)) is 1.54 µM. Also, on FLT3-ITD (setting [2]), the IC50 was above 20 µM. The IC50 on Cdk-2/cyclin E was 46.2 ± 1.49 µM. In the data set on K562, this compound showed a GI50 of 6.38 ± 1.14 µM. In the data set with HL-60, this compound displayed a GI50 of 3.58 ± 0.65 µM. In addition, the 50% growth inhibitory concentration (GI50) with MV4-11 was 8.28 ± 2.9 µM. For the same compound, in the data set on Ramos, the GI50 worked out at 12.8 ± 0.61 µM. In the data set on CEM, this compound came in with a GI50 of 15.5 ± 1.46 µM.

Regarding `CN1CCN(c2ccc(Nc3nc(Nc4ccc(OC(F)(F)F)c([N+](=O)[O-])c4)c4ncn(CC5CC5)c4n3)cc2)CC1` [Compound 4o, 9-(Cyclopropylmethyl)-N^2-(4-(4-methylpiperazin-1-yl)phenyl)-N^6-(3-nitro-4-(trifluoromethoxy)phenyl)-9H-purine-2,6-diamine], the melting point is 144 to 145 °C. Besides, the IC50 at Bcr-Abl1 turned out to be 0.44 ± 0.12 µM. Besides, at BTK (setting [1]), the IC50 turned out to be 5.03 ± 0.99 µM. Besides, the IC50 on FLT3-ITD (setting [2]) is 2.67 µM. Besides, on Cdk-2/cyclin E, the IC50 turned out to be 12.6 ± 2.12 µM. In the data set on K562, this compound returned a GI50 of 2.6 ± 1.25 µM. The compound further had a GI50 with HL-60 of 1.68 ± 0.01 µM. Besides, the GI50 with MV4-11 was 1.49 ± 0.33 µM. The GI50 in the data set on Ramos was 4.46 ± 0.38 µM. The same compound showed a GI50 in the data set on CEM of 14.8 ± 1.32 µM.

Usually GI50 stands for the concentration at which growth is held to half of that of the control. Read a low GI50 as more potent growth inhibition. As a reminder, the melting point is the temperature of the solid-liquid transition.
